Source: US20260265238A1, “COMPOUNDS AND PHARMACEUTICAL COMPOSITIONS THAT DEGRADE SWI/SNF-RELATED MATRIX-ASSOCIATED ACTIN-DEPENDENT REGULATOR OF CHROMATIN SUBFAMILY A” (Plexium, Inc., priority 2023, published 2026)

Assays:
[1] = target: T1, SMARCA4-HiBiT HeLa cells (protein which is expressed from the SMARCA4 gene) (Homo sapiens, UniProt P51532); test: SMARCA4 degradation assay (HiBiT-fusion HeLa cell line, 24 h, luminescence); format: cell-based
T1 construct: protein which is expressed from the SMARCA2 and SMARCA4 genes; host or cells: HeLa (SMARCA4-HiBiT engineered line)
T1 sequence (P51532 whole entry, the tested form may be a part): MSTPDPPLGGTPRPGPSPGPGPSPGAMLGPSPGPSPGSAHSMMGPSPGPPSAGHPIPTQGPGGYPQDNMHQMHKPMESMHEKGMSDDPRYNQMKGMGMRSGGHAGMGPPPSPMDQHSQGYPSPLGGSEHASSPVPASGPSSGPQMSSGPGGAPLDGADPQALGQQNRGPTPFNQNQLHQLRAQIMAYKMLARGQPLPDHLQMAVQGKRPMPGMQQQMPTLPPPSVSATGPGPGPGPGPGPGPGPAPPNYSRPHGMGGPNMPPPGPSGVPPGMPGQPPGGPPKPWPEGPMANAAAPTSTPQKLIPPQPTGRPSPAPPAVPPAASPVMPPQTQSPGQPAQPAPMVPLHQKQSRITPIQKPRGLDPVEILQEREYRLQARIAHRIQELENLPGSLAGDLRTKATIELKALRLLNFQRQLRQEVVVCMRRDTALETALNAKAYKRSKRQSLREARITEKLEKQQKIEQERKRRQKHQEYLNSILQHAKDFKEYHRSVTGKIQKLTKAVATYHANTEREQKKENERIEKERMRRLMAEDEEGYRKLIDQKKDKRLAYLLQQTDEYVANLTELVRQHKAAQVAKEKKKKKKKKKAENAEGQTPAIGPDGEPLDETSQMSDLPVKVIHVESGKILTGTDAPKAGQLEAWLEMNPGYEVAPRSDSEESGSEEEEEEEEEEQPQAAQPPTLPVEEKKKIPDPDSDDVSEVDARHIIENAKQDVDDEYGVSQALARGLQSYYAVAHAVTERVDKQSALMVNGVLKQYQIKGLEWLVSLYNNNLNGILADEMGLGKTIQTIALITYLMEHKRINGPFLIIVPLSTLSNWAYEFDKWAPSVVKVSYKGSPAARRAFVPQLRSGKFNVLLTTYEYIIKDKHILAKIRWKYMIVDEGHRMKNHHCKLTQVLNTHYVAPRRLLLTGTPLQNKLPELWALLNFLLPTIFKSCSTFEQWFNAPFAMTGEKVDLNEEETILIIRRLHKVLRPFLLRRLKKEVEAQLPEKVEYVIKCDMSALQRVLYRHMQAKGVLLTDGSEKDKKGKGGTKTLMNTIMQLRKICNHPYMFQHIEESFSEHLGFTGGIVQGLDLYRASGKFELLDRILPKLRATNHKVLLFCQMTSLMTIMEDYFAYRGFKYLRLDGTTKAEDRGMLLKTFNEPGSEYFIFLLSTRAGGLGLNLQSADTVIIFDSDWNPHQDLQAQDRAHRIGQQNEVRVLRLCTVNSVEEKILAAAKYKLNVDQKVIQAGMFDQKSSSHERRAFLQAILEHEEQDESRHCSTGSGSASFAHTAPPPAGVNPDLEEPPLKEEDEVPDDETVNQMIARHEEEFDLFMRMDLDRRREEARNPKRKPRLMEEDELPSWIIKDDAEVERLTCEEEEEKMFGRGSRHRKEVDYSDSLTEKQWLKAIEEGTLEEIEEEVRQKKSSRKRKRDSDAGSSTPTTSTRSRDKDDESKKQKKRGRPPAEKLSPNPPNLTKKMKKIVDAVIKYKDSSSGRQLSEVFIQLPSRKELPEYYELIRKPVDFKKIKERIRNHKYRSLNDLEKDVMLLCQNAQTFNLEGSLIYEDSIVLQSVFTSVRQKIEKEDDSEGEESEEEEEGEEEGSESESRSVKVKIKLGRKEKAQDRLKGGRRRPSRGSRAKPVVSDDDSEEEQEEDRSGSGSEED
In short: (§1)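 In this 24-hour cellular degradation readout, HiBiT-tagged HeLa lines received compound at up to typically 10 μM down to 300 pM in 10 points. After lysis with LgBiT and substrate, luminescence signals were used to build dose-response curves for DC50.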

[2] = target: T2, SMARCA2-HiBiT HeLa cells (protein which is expressed from the SMARCA2 gene) (Homo sapiens, UniProt P51531); test: SMARCA2 degradation assay (HiBiT-fusion HeLa cell line, 24 h, luminescence); format: cell-based
T2 construct: protein which is expressed from the SMARCA2 and SMARCA4 genes; host or cells: HeLa (SMARCA2-HiBiT engineered line)
T2 sequence (P51531 whole entry, the tested form may be a part): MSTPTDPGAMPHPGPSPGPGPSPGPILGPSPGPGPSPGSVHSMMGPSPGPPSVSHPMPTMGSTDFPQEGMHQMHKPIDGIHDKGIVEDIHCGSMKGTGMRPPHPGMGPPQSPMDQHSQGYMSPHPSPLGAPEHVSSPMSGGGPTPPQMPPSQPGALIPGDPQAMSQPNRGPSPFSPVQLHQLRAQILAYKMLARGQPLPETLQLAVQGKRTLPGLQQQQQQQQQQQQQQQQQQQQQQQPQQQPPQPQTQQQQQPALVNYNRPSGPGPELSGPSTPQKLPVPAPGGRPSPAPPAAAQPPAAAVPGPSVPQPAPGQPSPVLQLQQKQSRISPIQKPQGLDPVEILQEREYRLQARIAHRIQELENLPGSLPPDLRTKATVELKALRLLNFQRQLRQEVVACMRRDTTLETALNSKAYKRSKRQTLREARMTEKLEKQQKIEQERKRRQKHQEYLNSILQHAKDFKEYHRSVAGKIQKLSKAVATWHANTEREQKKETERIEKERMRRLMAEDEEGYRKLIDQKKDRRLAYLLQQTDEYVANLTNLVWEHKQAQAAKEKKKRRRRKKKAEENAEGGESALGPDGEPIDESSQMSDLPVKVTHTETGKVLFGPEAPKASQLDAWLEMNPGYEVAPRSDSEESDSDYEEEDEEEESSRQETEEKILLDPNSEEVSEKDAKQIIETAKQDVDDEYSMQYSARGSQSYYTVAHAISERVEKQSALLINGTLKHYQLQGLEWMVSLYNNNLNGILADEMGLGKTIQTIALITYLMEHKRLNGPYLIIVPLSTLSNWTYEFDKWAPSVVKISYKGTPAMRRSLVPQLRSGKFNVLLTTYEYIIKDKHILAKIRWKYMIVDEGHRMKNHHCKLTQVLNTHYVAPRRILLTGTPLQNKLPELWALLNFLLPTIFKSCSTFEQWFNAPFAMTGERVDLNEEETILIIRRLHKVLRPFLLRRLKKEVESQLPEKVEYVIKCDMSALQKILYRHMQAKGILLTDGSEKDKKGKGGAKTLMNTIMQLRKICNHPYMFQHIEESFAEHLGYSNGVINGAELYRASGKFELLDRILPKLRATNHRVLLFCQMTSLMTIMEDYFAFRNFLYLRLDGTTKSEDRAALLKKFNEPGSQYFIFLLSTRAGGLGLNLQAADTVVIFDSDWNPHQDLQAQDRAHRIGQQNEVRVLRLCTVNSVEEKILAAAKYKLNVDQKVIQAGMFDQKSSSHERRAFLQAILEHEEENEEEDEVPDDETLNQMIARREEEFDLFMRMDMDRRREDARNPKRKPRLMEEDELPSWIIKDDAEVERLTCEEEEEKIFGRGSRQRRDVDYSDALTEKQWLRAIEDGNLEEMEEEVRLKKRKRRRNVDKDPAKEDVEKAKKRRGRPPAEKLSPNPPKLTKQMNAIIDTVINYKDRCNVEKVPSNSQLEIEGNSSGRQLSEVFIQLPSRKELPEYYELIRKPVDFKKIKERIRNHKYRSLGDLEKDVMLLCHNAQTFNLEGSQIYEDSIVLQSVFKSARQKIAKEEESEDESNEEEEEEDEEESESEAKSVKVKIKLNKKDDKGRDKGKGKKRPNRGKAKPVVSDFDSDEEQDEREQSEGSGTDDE
In short: as §1

Row | DC50 [1] [µM] | inhibition at 1 µM ([1]; @ 1 μM) [%] | DC50 [2] [µM] | SMARCA2 % Degradation @ 1 μM ([2]; @ 1 μM) | inhibition at 1 µM ([1]; 1 μM) [%] | SMARCA2 % Degradation @ 1 μM ([2]; 1 μM) | SMILES
1 | 0.5 to 5 | 30 to 70 | 0.05 to 0.5 | ++ (++=30-70%) |  |  | COC/C=C/c1nccc(N2CCN(c3cc(-c4ccccc4O)nnc3N)CC[C@H]2C)n1 [Compound P-170, o-(5-{(R)-4-[2-(3-methoxy-1-propenyl)-4-pyrimidinyl]-5-methyl-1,4-diazepan-1-yl}-6-amino-3-pyridazinyl)phenol]
2 | 0.05 to 0.5 |  | 0.05 to 0.5 |  | 30 to 70 | +++ (+++=>70%) | C[C@@H]1CCN(c2cc(-c3ccccc3O)nnc2N)CCN1c1ccc(C#N)c(C#CCn2ccnc2)n1 [Compound P-429, 6-{(R)-4-[3-amino-6-(o-hydroxyphenyl)-4-pyridazinyl]-7-methyl-1,4-diazepan-1-y1}-2-[3-(1-imidazolyl)-1-propynyl]nicotinonitrile]
3 | 0.05 to 0.5 | 30 to 70 | 0.05 to 0.5 | ++ (++=30-70%) |  |  | N#CCNCC#Cc1nccc(N2CCCN(c3cc(-c4ccccc4O)nnc3N)CC2)n1 [Compound P-255, [3-(4-{4-[3-amino-6-(o-hydroxyphenyl)-4-pyridaziny1]-1,4-diazepan-1-yl}-2-pyrimidinyl)-2-propynylamino]acetonitrile]
4 | 0.05 to 0.5 |  | 0.05 to 0.5 |  | > 70 | +++ (+++=>70%) | CN(C)CC#Cc1nc(N2CCCN(c3cc(-c4ccccc4O)nnc3N)CC2)ccc1C#N [Compound P-385, 6-{4-[3-amino-6-(o-hydroxyphenyl)-4-pyridazinyl]-1,4-diazepan-1-y1}-2-[3-(dimethylamino)-1-propynyl]nicotinonitrile]
5 | 0.05 to 0.5 | 30 to 70 | 0.05 to 0.5 |  |  |  | Nc1nnc(-c2ccccc2O)cc1N1CCCN(c2ccnc(C#CCn3cnc4ccccc43)n2)CC1 [Compound P-150, 2-(5-(4-(2-(3-(1H-benzo[d]imidazol-1-yl)prop-1-yn-1-yl)pyrimidin-4-yl)-1,4-diazepan-1-yl)-6-aminopyridazin-3-yl)phenol]
6 | 0.05 to 0.5 | > 70 | 0.05 to 0.5 | +++ (+++=>70%) |  |  | CN1CCCC1C#Cc1nccc(N2CCCN(c3cc(-c4ccccc4O)nnc3N)CC2)n1 (stereo not drawn) [Compound P-350, 0-[6-amino-5-(4-{2-[2-(1-methyl-2-pyrrolidinyl)cthynyl]-4-pyrimidinyl}-1,4-diazepan-1-yl)-3-pyridazinyl]phenol]
7 | 0.05 to 0.5 | 30 to 70 | 0.05 to 0.5 | ++ (++=30-70%) |  |  | COCc1cc(N2CCCN(c3cc(-c4ccccc4O)nnc3N)CC2)nc(C#CCNC(=O)c2nn(C)c(C)c2C)n1 [Compound P-126, N-(3-(4-(4-(3-amino-6-(2-hydroxyphenyl)pyridazin-4-yl)-1,4-diazepan-1-yl)-6-(methoxymethyl)pyrimidin-2-yl)prop-2-yn-1-yl)-1,4,5-trimethyl-1H-pyrazole-3-carboxamide]
8 | 0.5 to 5 | 30 to 70 | 0.5 to 5 | ++ (++=30-70%) |  |  | CS(=O)(=O)N1CCC(C#Cc2nccc(N3CCCN(c4cc(-c5ccccc5O)nnc4N)CC3)n2)CC1 [Compound P-352, 0-[6-amino-5-(4-{2-[2-(1-mesyl-4-piperidyl)ethynyl]-4-pyrimidinyl}-1,4-diazepan-1-yl)-3-pyridazinyl]phenol]
9 | 0.05 to 0.5 | < 30 | 0.05 to 0.5 | ++ (++=30-70%) |  |  | Nc1nnc(-c2ccccc2O)cc1N1CCN(c2ccnc(C#CCNC(=O)c3cccnc3)n2)CC1 [Compound P-4, N-[3-(4-{4-[3-amino-6-(2-hydroxyphenyl)pyridazin-4-yl]piperazin-1-yl}pyrimidin-2-yl)prop-2-yn-1-yl]pyridine-3-carboxamide]
10 | < 0.05 | 30 to 70 | < 0.05 | +++ (+++=>70%) |  |  | C[C@@H]1CCN(c2cc(-c3ccccc3O)nnc2N)CCN1c1ccnc(C#CCN2CC3CC2C3)n1 [Compound P-234, o-{5-[(R)-4-(2-{3-(2-azabicyclo[2.1.1]hex-2-yl)-1-propynyl}-4-pyrimidinyl)-5-methyl-1,4-diazepan-1-yl]-6-amino-3-pyridazinyl}phenol]
11 | 0.5 to 5 | < 30 | 0.5 to 5 | ++ (++=30-70%) |  |  | C[C@@H]1CCN(c2cc(-c3ccccc3O)nnc2N)CCN1c1ccnc(C#CC23CCC(C2)N3)n1 (stereo partly drawn) [Compound P-196, o-{5-[(R)-4-(2-{2-(5-azabicyclo[2.1.1]hex-1-yl)ethynyl}-4-pyrimidinyl)-5-methyl-1,4-diazepan-1-yl]-6-amino-3-pyridazinyl}phenol]
12 | 0.5 to 5 | < 30 | 0.5 to 5 | + (+=<30%) |  |  | Nc1nnc(-c2ccccc2O)cc1N1CC2CN(c3ccnc(C#CCNC(=O)c4cc5ncccn5n4)n3)CC21 (stereo not drawn) [Compound P-45, N-(3-(4-(6-(3-amino-6-(2-hydroxyphenyl)pyridazin-4-yl)-3,6-diazabicyclo[3.2.0]heptan-3-yl)pyrimidin-2-yl)prop-2-yn-1-yl)pyrazolo[1,5-a]pyrimidine-2-carboxamide]
13 | 0.05 to 0.5 | 30 to 70 | 0.05 to 0.5 | ++ (++=30-70%) |  |  | COCC1COCCN1CC#Cc1nccc(N2CCN(c3cc(-c4ccccc4O)nnc3N)CC[C@H]2C)n1 (stereo partly drawn) [Compound P-162, o-{5-[(R)-4-(2-{3-[3-(mcthoxymcthyl)-4-morpholinyl]-1-propynyl}-4-pyrimidinyl)-5-methyl-1,4-diazepan-1-yl]-6-amino-3-pyridazinyl}phenol]
14 | 0.05 to 0.5 | 30 to 70 | 0.05 to 0.5 | ++ (++=30-70%) |  |  | Nc1nnc(-c2ccccc2O)cc1-c1cnn(C2CN(c3ccnc(C#CCn4ccnc4)n3)C2)c1 [Compound P-212, o-{6-amino-5-[1-(1-{2-[3-(1-imidazolyl)-1-propynyl]-4-pyrimidinyl}-3-azetidinyl)-4-pyrazolyl]-3-pyridazinyl} phenol]
15 | < 0.05 | 30 to 70 | < 0.05 | ++ (++=30-70%) |  |  | C[C@@H]1CCN(c2cc(-c3ccccc3O)nnc2N)CCN1c1ccnc(C#CCN(C)C)n1 [Compound P-345, 0-{5-[(R)-4-{2-[3-(dimethylamino)-1-propynyl]-4-pyrimidinyl}-5-methyl-1,4-diazepan-1-y1]-6-amino-3-pyridazinyl}phenol]
16 | 0.05 to 0.5 | 30 to 70 | 0.05 to 0.5 | ++ (++=30-70%) |  |  | Nc1nnc(-c2ccccc2O)cc1N1CCCN(c2ccnc(C#Cc3cnc4cnccn34)n2)CC1 [Compound P-135, 2-(6-amino-5-(4-(2-(imidazo[1,2-a]pyrazin-3-ylethynyl)pyrimidin-4-yl)-1,4-diazepan-1-yl)pyridazin-3-yl)phenol]
17 | < 0.05 | 30 to 70 | 0.05 to 0.5 | ++ (++=30-70%) |  |  | Nc1nnc(-c2ccccc2O)cc1N1CCN(c2ccnc(C#CCNC(=O)c3ccn(C(F)F)n3)n2)CC1 [Compound P-10, N-[3-(4-{4-[3-amino-6-(2-hydroxyphenyl)pyridazin-4-yl]piperazin-1-yl}pyrimidin-2-yl)prop-2-yn-1-y1]-1-(difluoromethyl)-1H-pyrazole-3-carboxamide]
18 | < 0.05 | 30 to 70 | < 0.05 | ++ (++=30-70%) |  |  | C[C@@H]1CCN(c2cc(-c3ccccc3O)nnc2N)CCN1c1ccnc(C#CCN2[C@H](C)C[C@H]2C)n1 [Compound P-264, o-{5-[(R)-4-(2-{3-[(2R,4R)-2,4-dimethyl-1-azetidinyl]-1-propynyl}-4-pyrimidinyl)-5-methyl-1,4-diazepan-1-yl]-6-amino-3-pyridazinyl}phenol]
19 | 0.5 to 5 | < 30 | 0.5 to 5 | ++ (++=30-70%) |  |  | Nc1nnc(-c2ccccc2O)cc1N1CCCN(c2ccnc(C#CCN3CC(=O)NC(=O)C3)n2)CC1 [Compound P-364, 4-[3-(4-{4-[3-amino-6-(o-hydroxyphenyl)-4-pyridazinyl]-1,4-diazepan-1-yl}-2-pyrimidinyl)-2-propynyl]-2,6-piperazinedione]
20 | 0.05 to 0.5 | 30 to 70 | 0.05 to 0.5 | ++ (++=30-70%) |  |  | C[C@@H]1CCN(c2cc(-c3ccccc3O)nnc2N)CCN1c1ccnc(C#CCN(C)CC(F)F)n1 [Compound P-155, o-{5-[(R)-4-(2-{3-[(2,2-difluoroethyl)-N-methylamino]-1-propynyl}-4-pyrimidinyl)-5-methyl-1,4-diazepan-1-yl]-6-amino-3-pyridazinyl}phenol]

Row | SMILES | DC50 [1] [µM] | inhibition at 1 µM ([1]; @ 1 μM) [%] | DC50 [2] [µM] | SMARCA2 % Degradation @ 1 μM ([2]; @ 1 μM) | inhibition at 1 µM ([1]; 1 μM) [%] | SMARCA2 % Degradation @ 1 μM ([2]; 1 μM)
21 | Nc1nnc(-c2ccccc2O)cc1N1C2CCC1CN(c1ccnc(C#CCn3ccnc3)n1)C2 [Compound P-284, 0-[6-amino-5-(3-{2-[3-(1-imidazolyl)-1-propynyl]-4-pyrimidinyl}-3,8-diazabicyclo[3.2.1]oct-8-yl)-3-pyridazinyl]phenol] | 0.5 to 5 | < 30 | 0.05 to 0.5 | ++ (++=30-70%) |  | 
22 | CC(C)(C)OC(=O)NCC#Cc1nccc(N2C3CCC2CN(c2cc(-c4ccccc4O)nnc2N)CC3)n1 (stereo not drawn) [Compound P-303, 4-(9-{2-[3-(tert-butoxycarbonylamino)-1-propynyl]-4-pyrimidinyl}-3,9-diazabicyclo[4.2.1]non-3-yl)-6-(o-hydroxyphenyl)-3-pyridazinamine] | < 0.05 | 30 to 70 | < 0.05 | ++ (++=30-70%) |  | 
